The text below walks through data of ChEMBL document CHEMBL1148629, “Pyrrolopyridazine MEK inhibitors” (Bioorg Med Chem Lett, 2006).

Experiment [1] deals with Dual specificity mitogen-activated protein kinase kinase 1 (Homo sapiens, UniProt Q02750). In words: Inhibitory activity against MEK.
The subject of experiment [2] is HT-29. In words: Antiproliferative activity against human tumor HT29 cell line. The experiment is classed as functional.
Experiment [3] deals with COLO 205. In words: Antiproliferative activity against human tumor Colo205 cell line. It counts as functional.
For experiment [4], the target named is Vascular endothelial growth factor receptor 2 (Homo sapiens) (UniProt P35968). In words: Inhibitory activity against VEGFR2 upto 50 uM.
Vascular endothelial growth factor receptor 2 (Homo sapiens), sequence (P35968 whole entry): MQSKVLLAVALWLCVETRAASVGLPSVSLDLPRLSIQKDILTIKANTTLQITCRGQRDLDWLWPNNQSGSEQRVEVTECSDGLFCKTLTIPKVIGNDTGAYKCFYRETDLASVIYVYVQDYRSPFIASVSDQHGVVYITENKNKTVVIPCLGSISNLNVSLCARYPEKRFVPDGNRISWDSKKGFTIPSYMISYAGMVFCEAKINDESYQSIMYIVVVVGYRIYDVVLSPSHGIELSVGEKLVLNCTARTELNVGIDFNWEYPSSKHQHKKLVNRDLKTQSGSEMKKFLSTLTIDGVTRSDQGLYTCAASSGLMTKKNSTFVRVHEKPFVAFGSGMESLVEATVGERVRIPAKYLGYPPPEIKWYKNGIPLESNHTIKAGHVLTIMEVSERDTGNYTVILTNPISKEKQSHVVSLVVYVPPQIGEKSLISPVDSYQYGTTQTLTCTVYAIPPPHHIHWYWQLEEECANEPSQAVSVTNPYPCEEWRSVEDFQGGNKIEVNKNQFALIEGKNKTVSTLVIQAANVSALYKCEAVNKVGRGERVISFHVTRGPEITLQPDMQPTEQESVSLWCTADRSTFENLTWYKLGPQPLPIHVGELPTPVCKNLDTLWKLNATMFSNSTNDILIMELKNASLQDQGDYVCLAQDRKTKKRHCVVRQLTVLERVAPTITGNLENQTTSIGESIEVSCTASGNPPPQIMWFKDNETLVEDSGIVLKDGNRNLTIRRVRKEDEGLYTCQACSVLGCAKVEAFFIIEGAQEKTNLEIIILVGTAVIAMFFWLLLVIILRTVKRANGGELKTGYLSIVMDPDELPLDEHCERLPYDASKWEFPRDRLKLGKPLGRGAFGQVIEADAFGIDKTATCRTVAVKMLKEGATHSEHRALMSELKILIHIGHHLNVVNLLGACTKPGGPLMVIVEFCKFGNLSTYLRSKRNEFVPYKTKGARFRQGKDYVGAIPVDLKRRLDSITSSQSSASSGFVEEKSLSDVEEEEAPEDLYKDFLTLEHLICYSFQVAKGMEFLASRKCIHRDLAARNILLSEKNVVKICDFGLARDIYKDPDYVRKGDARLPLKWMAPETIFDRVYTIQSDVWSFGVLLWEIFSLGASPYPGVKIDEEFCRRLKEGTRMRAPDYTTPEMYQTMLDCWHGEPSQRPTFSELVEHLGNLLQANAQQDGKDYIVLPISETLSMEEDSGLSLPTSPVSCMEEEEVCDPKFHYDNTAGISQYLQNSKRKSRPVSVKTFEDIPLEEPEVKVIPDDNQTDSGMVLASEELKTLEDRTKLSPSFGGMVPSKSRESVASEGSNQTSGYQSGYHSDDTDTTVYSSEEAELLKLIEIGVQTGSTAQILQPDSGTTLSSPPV

Dual specificity mitogen-activated protein kinase kinase 1, sequence (Q02750 whole entry): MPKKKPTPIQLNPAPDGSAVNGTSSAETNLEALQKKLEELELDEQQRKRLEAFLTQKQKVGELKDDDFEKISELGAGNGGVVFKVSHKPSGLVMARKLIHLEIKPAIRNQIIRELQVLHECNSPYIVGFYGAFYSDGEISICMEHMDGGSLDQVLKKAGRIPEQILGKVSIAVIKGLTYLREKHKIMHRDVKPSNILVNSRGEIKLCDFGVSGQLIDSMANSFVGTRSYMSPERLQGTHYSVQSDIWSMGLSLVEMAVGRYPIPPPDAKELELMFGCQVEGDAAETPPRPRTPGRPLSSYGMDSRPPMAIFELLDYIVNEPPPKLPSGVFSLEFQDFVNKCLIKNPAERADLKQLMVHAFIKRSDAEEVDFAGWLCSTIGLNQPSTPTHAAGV

The compound `CCOC(=O)c1cn2ncc(C#N)c(Oc3ccc(Oc4ccccc4)cc3)c2c1C` displayed an IC50 in experiment [1] of 5420 nM.

Regarding `CC(=O)Nc1cccc(C(=O)Nc2cn3ncc(C#N)c(Nc4ccc(Oc5ccccc5)cc4)c3c2C)c1`, the Activity worked out at 1.34 µM in experiment [2] and 1.86 µM in experiment [3]. For the same compound, the IC50 in experiment [1] came to 14 nM.

In the case of `Cc1c(OCCN2CCOCC2)cn2ncc(C#N)c(Nc3ccc(Oc4ccccc4)cc3)c12`, the IC50 in experiment [1] came out at 521 nM.

`CCOC(=O)c1cn2ncc(C#N)c(Nc3ccc(Oc4ccccc4)cc3)c2c1COCCOC` yielded an IC50 in experiment [1] of 566 nM.

`Cc1c(NC(=O)NCCN2CCOCC2)cn2ncc(C#N)c(Nc3ccc(Oc4ccccc4F)cc3)c12` returned an IC50 in experiment [1] of 33 nM.

For `Cc1c(NC(=O)OCCN2CCOCC2)cn2ncc(C#N)c(Nc3ccc(Oc4ccccc4)cc3)c12`, in experiment [4], the inhibition was < 5%. Moreover, the figures for the Activity in experiment [2] and in experiment [3] were 3.76 µM and 2.88 µM, respectively. The compound further came in with an IC50 in experiment [1] of 58 nM.

`Cc1c(N)cn2ncc(C#N)c(Nc3ccc(Oc4ccccc4)cc3)c12`: the IC50 in experiment [1] came out at 190 nM.

For the compound `Cc1c(C(=O)NCCN2CCOCC2)cn2ncc(C#N)c(Nc3ccc(Oc4ccccc4)cc3)c12`, in experiment [1], inhibition was half-maximal at 386 nM (IC50).

Compound `CCOC(=O)c1cn2ncc(C#N)c(Nc3ccc(Oc4ccccc4)cc3)c2c1CO` showed an IC50 in experiment [1] of 203 nM.

For the compound `CC(=O)NCc1cnn2cc(C(=O)O)c(C)c2c1Nc1ccc(Oc2ccccc2)cc1`, the IC50 in experiment [1] was > 25000 nM.

In the case of `Cc1c(C(=O)O)cn2ncc(CN)c(Nc3ccc(Oc4ccccc4)cc3)c12`, the IC50 in experiment [1] was > 25000 nM.

On to `COc1ccccc1Oc1ccc(Nc2c(C#N)cnn3cc(NC(=O)OCCN4CCOCC4)c(C)c23)cc1`, for which the Activity was 3.78 µM in experiment [2] and 2.06 µM in experiment [3]. The compound further displayed an IC50 in experiment [1] of 48 nM.

With `Cc1c(C(C)(C)O)cn2ncc(C#N)c(Nc3ccc(Oc4ccccc4)cc3)c12`, in experiment [1], the half-maximal inhibitory concentration (IC50) is > 25000 nM.

As to `CCOC(=O)c1cn2ncc(C#N)c(Nc3ccc(-c4ccccc4)cc3)c2c1C`, the IC50 in experiment [1] is > 25000 nM.

With `Cc1c(C(=O)O)cn2ncc(C#N)c(Nc3ccc(Oc4ccccc4)cc3)c12`, the IC50 in experiment [1] was determined as 147 nM.

Take `Cc1c(NC(=O)c2ccccc2)cn2ncc(C#N)c(Nc3ccc(Oc4ccccc4)cc3)c12`: the figures for the Activity in experiment [2] and in experiment [3] were 2.13 µM and 2.42 µM, respectively. The compound also showed an IC50 in experiment [1] of 42 nM.

In experiment [1], `COc1ccccc1Oc1ccc(Nc2c(C#N)cnn3cc(NC(=O)NCCN4CCOCC4)c(C)c23)cc1` returned an IC50 of 24 nM.

Compound `CCOCc1c(C(=O)OCC)cn2ncc(C#N)c(Nc3ccc(Oc4ccccc4)cc3)c12` showed an IC50 in experiment [1] of 331 nM.

With `CCOC(=O)c1cn2ncc(C#N)c(Nc3ccc(Nc4ccccc4)cc3)c2c1C`, in experiment [1], the IC50 came to 2320 nM.

`Cc1c(-c2nc3ccccc3[nH]2)cn2ncc(C#N)c(Nc3ccc(Oc4ccccc4)cc3)c12` had a concentration for half-maximal inhibition (IC50) in experiment [1] of 168 nM.

With `CCOC(=O)c1cn2ncc(C#N)c(Nc3ccc(OCc4ccccc4)cc3)c2c1C`, the IC50 in experiment [1] was > 25000 nM.

On to `Cc1c(C(=O)O)cn2ncc(CNS(C)(=O)=O)c(Nc3ccc(Oc4ccccc4)cc3)c12`, for which the IC50 in experiment [1] is > 25000 nM.

As for `Cc1c(NC(=O)NCCN2CCOCC2)cn2ncc(C#N)c(Nc3ccc(Oc4ccccc4)cc3)c12`, the inhibition in experiment [4] is < 5%. Also, the Activity in experiment [2] stood at 0.86 µM; in experiment [3], 3.9 µM. 36 nM corresponded to half-maximal inhibition in experiment [1] (IC50).

In experiment [2], `CNC(=O)Nc1cn2ncc(C#N)c(Nc3ccc(Oc4ccccc4)cc3)c2c1C` had an Activity of 7.38 µM. Also, the IC50 in experiment [1] amounted to 18 nM.

`COc1cccc(Oc2ccc(Nc3c(C#N)cnn4cc(NC(=O)NCCN5CCOCC5)c(C)c34)cc2)c1`: in experiment [1], the IC50 is 29 nM.

Regarding `CCOC(=O)c1cn2ncc(C#N)c(NCc3ccc(Oc4ccccc4)cc3)c2c1C`, in experiment [1], the IC50 was > 25000 nM.

In the case of `CCOC(=O)c1cn2ncc(C#N)c(Nc3ccc(C(=O)c4ccccc4)cc3)c2c1C`, the IC50 in experiment [1] is 1110 nM. That is a single-digit micromolar value.

Regarding `CCOC(=O)c1cn2ncnc(Nc3ccc(Oc4ccccc4)cc3)c2c1C`, the IC50 in experiment [1] worked out at 3470 nM.

The compound `COC(=O)Nc1cn2ncc(C#N)c(Nc3ccc(Oc4ccccc4)cc3)c2c1C` gave an Activity in experiment [2] of 7.64 µM. In addition, half-maximal inhibition in experiment [1] (IC50) required 23 nM.

In the case of `CCOC(=O)c1cn2ncc(C#N)c(Nc3ccc(Oc4ccc(Cl)cc4)cc3)c2c1C`, the IC50 in experiment [1] was 642 nM.

As for `COc1cccc(Oc2ccc(Nc3c(C#N)cnn4cc(NC(=O)OCCN5CCOCC5)c(C)c34)cc2)c1`, the Activity was 2.35 µM in experiment [2] and 0.72 µM in experiment [3]. Further, the IC50 in experiment [1] came out at 76 nM.

For `CCOC(=O)c1cn2ncc(C#N)c(Nc3ccccc3)c2c1C`, the IC50 in experiment [1] was > 25000 nM.

In the case of `CCOC(=O)c1cn2ncc(C#N)c(Nc3ccc(Cc4ccccc4)cc3)c2c1C`, in experiment [1], the midpoint of inhibition, the IC50, lay at 68 nM.

Take `Cc1ccn2ncc(C#N)c(Nc3ccc(Oc4ccccc4)cc3)c12`: the Activity in experiment [2] and in experiment [3] was >10 µM throughout. In experiment [1], this compound returned an IC50 of 241 nM.

As for `Cc1c(NS(=O)(=O)c2ccccc2)cn2ncc(C#N)c(Nc3ccc(Oc4ccccc4)cc3)c12`, the IC50 in experiment [1] amounted to 14600 nM.

Usually IC50 stands for the concentration needed to halve the response being measured. High values mean weaker potency, low ones greater potency. One may read the inhibition as the drop in the measured response relative to a control, in per cent. Low readings indicate a response near the control, high ones a response far below the control.
